Results taken from PubChem BioAssay AID2060337 (Molecular Pharmacology Branch, DTP, NCI, 2025).

Tested on: 832693-133-R-J1-PDC multi-cell spheroids, viability
Experiment: Anticancer human tumor 832693-133-R-J1-PDC patient-derived head and neck squamous carcinoma cell line growth inhibition [IpAb]
Details: for IC50: curve of first compound; for viability, T/C: stronger effect = lower value
Source text: Combinatorial screen of targeted agents with ipatasertib and abemaciclib in multi-cell type tumor spheroids
A high-throughput screen of multi-cell type tumor spheroids was designed to identify active combinations of targeted small molecules and ipatasertib or abemaciclib. Complex spheroids include a stromal component modeled by human endothelial cells (HUVEC) and fibroblasts modeled by human mesenchymal stem cells (MSCs). The concentration ranges selected for each drug and investigational agent were based upon clinically achievable concentrations if the clinical Cmax of the agent was known.
Compounds. The drugs and investigational agents: ipatasertib (NSC767898), abemaciclib(NSC768073), selumetinib (NSC741078), trametinib (758246), adavosertib (NSC754352), everolimus (NSC733504), sapanisertib (NSC764658), vemurafenib (NSC761431), venetoclax (NSC766270), copanlisib (NSC809693), apelisib (NSC765974), palbociblib (NSC758247), vemurafenib (NSC761431), dabrafenib (NSC764134), ravoxertinib (NSC781343), BMS-387032 (NSC767048), sotorasib (NSC818433), talazoparib (NSC767125) and afursertib (NSC778305), were obtained from the National Cancer Institute (NCI) Developmental Therapeutics Program Chemical Repository. The FDA-approved anticancer drug set is available from the NCI Developmental Therapeutics Program. […] The stock solutions were prepared in dimethyl sulfoxide (DMSO, Sigma-Aldrich, St. Louis, MO, cat. D2650) at 800-fold the tested concentration and stored at -70 degrees C prior to their use. All drugs and investigational agents were tested over a range starting from a high concentration at or near the clinical Cmax and decreasing in half-log increments. If the clinical Cmax for an agent had not been determined, the highest concentration tested was 10 microM.
NCI60 Cell Culture. NCI60 cell lines were obtained from the NCI Developmental Therapeutics Program Tumor Repository. For each lot of cells, the Repository performed Applied Biosystems AmpFLSTR Identifiler testing with PCR amplification to confirm consistency with the published Identifier STR profile for each cell line. Cells were kept in continuous culture for no more than 20 passages. The optimal seeding densities for each of the cell lines at each time point assessed were determined prior to performing the concentration response studies. Briefly, the NCI60 human tumor lines were grown as monolayers in RPMI 1640 medium supplemented with 10% FBS and 2 mmol/L L-glutamine.
An additional 9 lines were from the NCI60 cell line panel including MDA-MB-231 breast carcinoma, MDA-MB-468 breast carcinoma, MCF7 breast carcinoma, Hs578T breast carcinoma, MALME-3M melanoma, SK-MEL-2 melanoma, SK-OV-3 ovarian carcinoma, DU-145 prostate carcinoma, PC-3 prostate carcinoma, all cell lines along with major genetic alterations are listed on Table 2. Pooled donor human umbilical vein endothelial cells (HUVEC, Lonza, cat. CC-2519) and human mesenchymal stem cells (hMSC, Lonza, cat. PT-2501) were purchased from Lonza (Walkersville, MD).
PDMR cell lines were grown in complete medium (DC medium): Dulbecco's modified Eagle's medium (DMEM)/F12 supplemented with 5% fetal bovine serum (FBS), 2 mM L-glutamine, 100 U/mL penicillin and 100 µg/ml streptomycin, 0.4 µg/ml hydrocortisone, 10 ng/ml epidermal growth factor (EGF) recombinant human protein, 24 µg/mL adenine, and 0.1 mg/mL primocin. During culture from frozen stock vials, PDMR cells were cultured in the same medium containing 10 µM Y-27632 (see Table 3). The PDCs were cultured in complete DMEM/F12 media without 10 microM Y-27632 dihydrochloride for at least two passages prior to the screen. The pooled donor HUVEC and hMSC were cultured in endothelial cell growth medium 2 (PromoCell, Heidelberg, Germany, cat. C-22011) and mesenchymal stem cell growth medium 2 (PromoCell, cat. C-28009), respectively. For all experiments, HUVEC and hMSC were used at passages </=5.
[…]

[1] = second compound 0.01 µM, first compound 0.0316 µM
[2] = second compound 0.01 µM, first compound 0.1 µM
[3] = second compound 0.01 µM, first compound 0.316 µM
[4] = second compound 0.01 µM, first compound 1 µM
[5] = second compound 0.01 µM, first compound 3.16 µM
[6] = second compound 0.01 µM, first compound 10 µM
[7] = second compound 0.0316 µM, first compound 0.0316 µM
[8] = second compound 0.0316 µM, first compound 0.1 µM
[9] = second compound 0.0316 µM, first compound 0.316 µM
[10] = second compound 0.0316 µM, first compound 1 µM
[11] = second compound 0.0316 µM, first compound 3.16 µM
[12] = second compound 0.0316 µM, first compound 10 µM
[13] = second compound 0.1 µM, first compound 0.0316 µM
[14] = second compound 0.1 µM, first compound 0.1 µM
[15] = second compound 0.1 µM, first compound 0.316 µM
[16] = second compound 0.1 µM, first compound 1 µM
[17] = second compound 0.1 µM, first compound 3.16 µM
[18] = second compound 0.1 µM, first compound 10 µM
[19] = second compound 0.316 µM, first compound 0.0316 µM
[20] = second compound 0.316 µM, first compound 0.1 µM
[21] = second compound 0.316 µM, first compound 0.316 µM
[22] = second compound 0.316 µM, first compound 1 µM
[23] = second compound 0.316 µM, first compound 3.16 µM
[24] = second compound 0.316 µM, first compound 10 µM
[25] = second compound 1 µM, first compound 0.0316 µM
[26] = second compound 1 µM, first compound 0.1 µM
[27] = second compound 1 µM, first compound 0.316 µM
[28] = second compound 1 µM, first compound 1 µM
[29] = second compound 1 µM, first compound 3.16 µM
[30] = second compound 1 µM, first compound 10 µM
[31] = second compound 3.16 µM, first compound 0.0316 µM
[32] = second compound 3.16 µM, first compound 0.1 µM
[33] = second compound 3.16 µM, first compound 0.316 µM
[34] = second compound 3.16 µM, first compound 1 µM
[35] = second compound 10 µM, first compound 0.0316 µM
[36] = second compound 10 µM, first compound 0.1 µM
[37] = second compound 10 µM, first compound 0.316 µM
[38] = second compound 10 µM, first compound 1 µM
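Further: spheroids exposed to the drugs for one week before the viability readout.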
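Wherever viability, T/C is given: 100% = DMSO vehicle control wells.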

| SMILES | IC50 (second compound 0.1 µM) [nM] | IC50 (second compound 0.316 µM) [nM] | IC50 (second compound 1 µM) [nM] | viability, T/C [13] [%] | viability, T/C [14] [%] | viability, T/C [15] [%] | viability, T/C [16] [%] | viability, T/C [17] [%] | viability, T/C [18] [%] | viability, T/C [19] [%] | viability, T/C [20] [%] | viability, T/C [21] [%] | viability, T/C [22] [%] | viability, T/C [23] [%] | viability, T/C [24] [%] | viability, T/C [25] [%] | viability, T/C [26] [%] | viability, T/C [27] [%] | viability, T/C [28] [%] | viability, T/C [29] [%] | further results |
| --- | --- | --- | --- | --- | --- | --- | --- | --- | --- | --- | --- | --- | --- | --- | --- | --- | --- | --- | --- | --- | --- |
| Cn1ncc(Cl)c1-c1cc(C(=O)NC(CN)Cc2cccc(F)c2)sc1Cl (stereo not given) + CCN1CCN(Cc2ccc(Nc3ncc(F)c(-c4cc(F)c5nc(C)n(C(C)C)c5c4)n3)nc2)CC1 | < 31.6 | < 31.6 | < 31.6 | 64.4 | 50 | 43.4 | 37.8 | 49.9 | 0.21 | 53.2 | 38.4 | 31.6 | 33.3 | 32.1 | 0.19 | 47.6 | 37.1 | 33.2 | 32.8 | 36 | IC50 (second compound 0.01 µM): 4490 nM; IC50 (second compound 0.0316 µM): 3210 nM; viability, T/C [1]: 94.4%; viability, T/C [2]: 91.1%; viability, T/C [3]: 67.5%; viability, T/C [4]: 50.2%; viability, T/C [5]: 73.7%; viability, T/C [6]: 0.29%; viability, T/C [7]: 79.4%; viability, T/C [8]: 70.2%; viability, T/C [9]: 61.3%; viability, T/C [10]: 46.6%; viability, T/C [11]: 59.9%; viability, T/C [12]: 0.25%; viability, T/C [30]: 0.28% |
| COc1c(OCCCN2CCOCC2)ccc2c3n(c(=NC(=O)c4cnc(N)nc4)nc12)CCN3 + CC(C)NCC(C(=O)N1CCN(c2ncnc3c2C(C)CC3O)CC1)c1ccc(Cl)cc1 | 15.4 | 5.27 | < 3.16 | 27.4 | 7.23 | 4.92 | 4.02 |  |  | 19.2 | 7.29 | 3.93 | 3.87 |  |  | 12.7 | 6.94 | 4.52 | 3.27 |  | IC50 (second compound 3.16 µM): < 3.16 nM; IC50 (second compound 10 µM): < 3.16 nM; viability, T/C (second compound 0.1 µM, first compound 0.00316 µM): 83.1%; viability, T/C (second compound 0.1 µM, first compound 0.01 µM): 63.4%; viability, T/C (second compound 0.316 µM, first compound 0.00316 µM): 59.6%; viability, T/C (second compound 0.316 µM, first compound 0.01 µM): 37.7%; viability, T/C (second compound 1 µM, first compound 0.00316 µM): 43.2%; viability, T/C (second compound 1 µM, first compound 0.01 µM): 20.6%; viability, T/C (second compound 3.16 µM, first compound 0.00316 µM): 30.5%; viability, T/C (second compound 3.16 µM, first compound 0.01 µM): 18.4%; viability, T/C [31]: 11.2%; viability, T/C [32]: 7.39%; viability, T/C [33]: 5.57%; viability, T/C [34]: 4.86%; viability, T/C (second compound 10 µM, first compound 0.00316 µM): 32.8%; viability, T/C (second compound 10 µM, first compound 0.01 µM): 22.8%; viability, T/C [35]: 14.2%; viability, T/C [36]: 7.94%; viability, T/C [37]: 5.9%; viability, T/C [38]: 5.91% |
| CCCS(=O)(=O)Nc1ccc(F)c(C(=O)c2c[nH]c3ncc(-c4ccc(Cl)cc4)cc23)c1F + CC(C)NCC(C(=O)N1CCN(c2ncnc3c2C(C)CC3O)CC1)c1ccc(Cl)cc1 | 8040 | > 10000 | > 10000 | 99.1 | 102 | 92.5 | 91.1 | 88.1 | 41.4 | 79.5 | 79.2 | 93 | 92.9 | 110 | 56.9 | 60.1 | 66.3 | 66.7 | 85.6 | 139 | IC50 (second compound 3.16 µM): > 10000 nM; IC50 (second compound 10 µM): > 10000 nM; viability, T/C [30]: 103%; viability, T/C [31]: 54.2%; viability, T/C [32]: 54.8%; viability, T/C [33]: 62.6%; viability, T/C [34]: 82.2%; viability, T/C (second compound 3.16 µM, first compound 3.16 µM): 126%; viability, T/C (second compound 3.16 µM, first compound 10 µM): 92%; viability, T/C [35]: 53.5%; viability, T/C [36]: 60.5%; viability, T/C [37]: 61.5%; viability, T/C [38]: 68.7%; viability, T/C (second compound 10 µM, first compound 3.16 µM): 98.8%; viability, T/C (second compound 10 µM, first compound 10 µM): 56.1% |
| CCCS(=O)(=O)Nc1ccc(F)c(C(=O)c2c[nH]c3ncc(-c4ccc(Cl)cc4)cc23)c1F + CCN1CCN(Cc2ccc(Nc3ncc(F)c(-c4cc(F)c5nc(C)n(C(C)C)c5c4)n3)nc2)CC1 | 1240 | < 31.6 | 77.5 | 66.3 | 60.1 | 64.9 | 51.9 | 35.7 | 15.2 | 44.8 | 51.9 | 40.4 | 36.9 | 26.6 | 13.4 | 50.5 | 49.6 | 44.2 | 24.8 | 18.8 | IC50 (second compound 0.01 µM): 5060 nM; IC50 (second compound 0.0316 µM): 3490 nM; viability, T/C [1]: 97.9%; viability, T/C [2]: 105%; viability, T/C [3]: 100%; viability, T/C [4]: 87.6%; viability, T/C [5]: 63.6%; viability, T/C [6]: 30.9%; viability, T/C [7]: 88.7%; viability, T/C [8]: 88.4%; viability, T/C [9]: 81.5%; viability, T/C [10]: 74.9%; viability, T/C [11]: 51.4%; viability, T/C [12]: 28.3%; viability, T/C [30]: 13.3% |
